The record followed here is patent US20090036416A1, “Novel CXCR4 Antagonist and Use Thereof” (Kyoto University, priority 2005, published 2009).

Some results are limits rather than exact numbers.

The target of assay [1] is T1, CXCR4 (Homo sapiens, UniProt P61073). In words: CXCR4 antagonistic activity: inhibition of Ca2+ movement induced by SDF-1a in CXCR4 transfected CHO cells (Fura-2). In kind it is cell-based. Particulars: for CXCR4 antagonistic activity (in words): comment in the text on Tables 1 to 3. The method, then:
Various aromatic compounds each having a dipicolylamine-zinc complex were prepared, and their CXCR4 antagonistic effects were examined using the following method.
A CXCR4 transfected Chinese hamster ovary(CHO) cells (3×10^4 cell/100 μL/well) were plated in each well of a flat-bottomed micro-titer tray. The samples were incubated in a CO2 incubator at 37° C., and the cells were loaded in Ham F-12 buffer(80 μL/well) for an hour at 37° C., together with 5 μM Fura-2AM (Dojindo, Kumatomo, Japan), 2.5 mM Probenecid (Sigma) and 20 mM HEPES(pH7.4).
Thereafter, the cells were washed twice with Hank's balanced salt solution (100 μL×2), and placed in a spectrofluorimeter (96 well Fluorescence Drug Screening System, Hamamatsu Photonics K.K. Japan). 30 seconds after the measurement started, the cells were incubated in Hank's balanced salt solution with plural test compounds of different concentrations. After 3 minutes, recombinant SDF-1a (PreproTech, 30 nM/[…]/well) was added.
Changes of the CXCR4 transfect CHO cell system loaded with Fura2-A[Ca^2+], were recorded in real time with a modification method of Fura-2. The CXCR4 antagonistic effect was measured based on the inhibition of Ca^2+ movement induced by the stimulation of SDF-1a via CXCR4 (IC50).

In assay [2] the target is T1, CXCR4. The assay is described as follows: CXCR4 binding activity: inhibition of 125I-SDF-1a bonding to CXCR4 transfected CHO cells.
Experimental: A CXCR4 transfected CHO cells suspended in Ham's F-12 buffer (0.5% bovine serum albumin, 20 mM HEPES buffer) were placed in a silicon-coated test tube (5×10^5 cells/120 μL/well). Cold SDF-1 a (Final concentration 0.1 μM, 15 μL/well) and a test object having one of various concentrations (15 μL/well) was added to the test tube. Thereafter, ^125I-SDF-1a (PerkinElmer, final concentration=0.1 nM, 15 μL/well) was added. The sample was incubated for an hour at 0° C., mixed with oil (dibutyl phthalate: olive oil=4:1(v/v), 500 μL/well), then centrifuged for 2 minutes at 14,000 rpm. After removing the water layer and the organic layer, the bottom part was separated from the test tube and was placed in a radioimmunoassay counting tube. Thereafter, count per minute (CPM) was measured with a γ-counter.
Inhibition rate (%)=(Et−Ea)/(Et−Ec)×100
Assay [3] relates to HIV-1IIIB. Conditions: read-out: EC50 (anti-HIV-1 activity); HIV-1IIIB infected MT-4 cells, virus number/cells number=0.01, five days, MTT viable cell count.
Experimental: The method carries out measurement of anti-HIV-1 activity based on the inhibition effect with respect to cellular degeneration induced in the MT-4 cells by HIV-1.
MT-4 and MOLT-4 cells, human T-cell systems, are incubated in a RPMI1640 culture medium containing 10% heat-inactivated fetal bovine serum, 100 IU/mL of penicillin, and 100 mg/mL of streptomycin.
HIV-1IIIB, an X4-HIV-1-strain, was used as virus. The virus was obtained from a culture solution supernatant of MOLT-4/HIV-1IIIB cells persistently infected with HIV-1, and was kept at −80° C. before use.
Plural test compounds of different concentrations were individually added to HIV-1 infected MT-4 cells (virus number/cells number=0.01), and the samples were plated in the wells of a flat-bottomed micro-titer tray (1.5×10^4 cells/well). The samples were incubated in a CO2 incubator for five days at 37° C. A viable cell count was carried out (EC50) with an MTT method.

T1 sequence (P61073 whole entry): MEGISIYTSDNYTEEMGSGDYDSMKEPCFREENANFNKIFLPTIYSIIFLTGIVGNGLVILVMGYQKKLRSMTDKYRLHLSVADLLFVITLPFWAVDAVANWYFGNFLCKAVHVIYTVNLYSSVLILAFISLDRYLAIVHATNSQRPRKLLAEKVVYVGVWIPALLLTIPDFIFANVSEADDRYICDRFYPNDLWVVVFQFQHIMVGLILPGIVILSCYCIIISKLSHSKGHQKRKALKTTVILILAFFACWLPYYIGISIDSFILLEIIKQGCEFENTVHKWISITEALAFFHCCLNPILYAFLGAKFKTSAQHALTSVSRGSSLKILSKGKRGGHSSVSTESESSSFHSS

By IC50 is commonly meant the concentration at which inhibition is half-maximal. As to “9,10-bis[(2,2′-dipicolylamino) methyl]anthracene/Zn complex [Example Compound 9]”, the “CXCR4 antagonistic activity (in words)” value in assay [1] is “high activity”. The same molecule displayed an IC50 in assay [1] (inhibition of Ca2+ movement induced by SDF-1a (30 nM) via CXCR4, CXCR4 transfected CHO cells) of 0.24 µM.

Turning to `c1ccc(CN(Cc2ccc(CN(Cc3ccccn3)Cc3ccccn3)cc2)Cc2ccccn2)nc1` [Comparative Example Compound A, reference compound], in assay [1], the IC50 was > 10 µM.

`c1ccc(CN(Cc2ccc(-c3ccc(CN(Cc4ccccn4)Cc4ccccn4)cc3)cc2)Cc2ccccn2)nc1` [Comparative Example Compound B, reference compound]: in assay [1], the IC50 was > 10 µM.

For the molecule `c1ccc(CN(Cc2cccc(-c3cccc(CN(Cc4ccccn4)Cc4ccccn4)c3)c2)Cc2ccccn2)nc1` [Example Compound 3], the IC50 in assay [1] amounted to 0.35 µM.

`c1ccc(CN(Cc2ccnc(-c3cc(CN(Cc4ccccn4)Cc4ccccn4)ccn3)c2)Cc2ccccn2)nc1` [Example Compound 5] registered an IC50 in assay [1] of 0.46 µM.

The molecule `c1ccc(CN(Cc2ccccn2)Cc2c3ccccc3cc3ccccc23)nc1` [Example Compound 8] registered an IC50 in assay [1] of 0.77 µM.

On to `C[C@H](NC(=O)[C@H](CCCNC(=N)N)NC(=O)c1ccc(CNCc2ccccn2)cc1)c1cccc2ccccc12` [Reference Example Compound III, reference compound], for which the IC50 in assay [1] is 0.24 µM; in assay [2], 0.034 µM.

The term EC50 denotes the concentration needed to bring the measured effect to its halfway point. “bis(2,2′-dipicolylamino)-p-xylene/zinc complex [Example Compound 1]”: the “CXCR4 antagonistic activity (in words)” value in assay [1] was “strong CXCR4 antagonistic activity”. The “CXCR4 bonding activity (in words)” value in assay [2] (comment in the text on Table 4) was “comparative to that of Reference Example Compound III (KRH-1636)”. Further, the EC50 in assay [3] was 7.1 µM.
